Assay results taken from ChEMBL document CHEMBL1667812, “Compounds from Kadsura angustifolia with anti-HIV activity” (Bioorg Med Chem Lett, 2011).
Values after ≈ are worked out from the molar mass of the structure shown.

Experiments:
[1] = tested on: Human immunodeficiency virus 1; assay: Antiviral activity against HIV1-3B infected in human […] cells assessed as inhibition of virus-induced cytopathic effect; format: functional, organism-based; details: Human immunodeficiency virus 1, 3B
[2] = Cytotoxicity against human […] cells; format: cell-based
[3] = Therapeutic index, ratio of CC50 for human […] cells to EC50 for HIV1-3B; format: cell-based; details: read-out: Ratio CC50/EC50

| Compound | EC50 [1] [µg/mL] | CC50 [2] [µg/mL] | selectivity ratio [3] |
| --- | --- | --- | --- |
| C=C(CC/C=C(/C)C(=O)O)C1=CC[C@@]2(C)[C@@H]3[C@H]4C[C@H](C(=C)C)[C@@]5(CCC(=O)O4)C[C@@]35CC[C@]12C [ANGUSTIFIC ACID A] | 6.11 (≈ 13.1 µM) | > 200 | > 32.8 |
| CC1=CC[C@H]([C@](C)(O)[C@H]2CC[C@@]3(C)[C@@H]4C[C@H](O)[C@H]5C(C)(C)OC(=O)C=C[C@@]56C[C@@]46C[C@H](O)[C@]23C)OC1=O [ANGUSTIFODILACTONE B] | 13.6 (≈ 26.4 µM) | 182 (≈ 354 µM) | 13.4 |
| CC1(C)OC(=O)C=C[C@]23C[C@]24C[C@H](O)[C@]2(C)[C@@H]([C@@](C)(O)[C@H]5CC=C(CO)C(=O)O5)CC[C@@]2(C)[C@@H]4C[C@H](O)[C@@H]13 [ANGUSTIFODILACTONE A] | 13.3 (≈ 25.1 µM) | 178 (≈ 336 µM) | 13.4 |
| C=C(C)[C@@H]1C[C@H](O)[C@@H]2[C@]3(CC[C@]4(C)C([C@@](C)(O)CC/C=C(/C)C(=O)O)=C[C@H](O)[C@@]24C)C[C@]13CCC(=O)O [ANGUSTIFIC ACID B] | 11.2 (≈ 21.7 µM) | 156 (≈ 302 µM) | 13.9 |

More lines, main results first:

| EC50 [1] [µg/mL] | Compound | CC50 [2] [µg/mL] | selectivity ratio [3] |
| --- | --- | --- | --- |
| 15.7 (≈ 45.6 µM) | C=C(C)[C@@H]1CC[C@@H]2[C@]3(CC[C@]4(C)C(=O)CC[C@@]24C)C[C@]13CCC(=O)O [MICRANOIC ACID B] | 176 (≈ 511 µM) | 11.2 |
| 15.8 (≈ 36.5 µM) | COc1cc2c(c(OC)c1OC)-c1c(cc(OC)c(OC)c1OC)C[C@](C)(O)[C@@H](C)C2 [SCHIZANDRIN] | > 200 | > 12.7 |
| 22.1 (≈ 42.9 µM) | C/C=C(/C)C(=O)O[C@H]1c2cc(OC)c(OC)c(OC)c2-c2c(cc3c(c2OC)OCO3)C[C@H](C)[C@]1(C)O [SCHISANTHERIN B] | > 200 | > 9.05 |
| 10.5 (≈ 22.3 µM) | C=C(C)[C@@H]1CC[C@@H]2[C@]3(CC[C@]4(C)[C@@H]([C@H](C)CC/C=C(/C)C(=O)O)CC[C@@]24C)C[C@]13CCC(=O)O [NIGRANOIC ACID] | 89 (≈ 189 µM) | 8.48 |
| 20.5 (≈ 39.4 µM) | COc1c2c(cc3c1-c1c(cc4c(c1OC)OCO4)[C@H](OC(=O)c1ccccc1)[C@@](C)(O)[C@@H](C)C3)OCO2 [SCHISANTHERIN D] | > 200 | > 9.76 |
| 19 (≈ 38.1 µM) | C/C=C(/C)C(=O)O[C@H]1c2cc3c(c(OC)c2-c2c(cc4c(c2OC)OCO4)C[C@H](C)[C@]1(C)O)OCO3 [INTERIOTHERIN B] | > 200 | > 10.5 |
| 0.0033 (≈ 0.0123 µM) | Cc1cn([C@H]2C[C@H](N=[N+]=[N-])[C@@H](CO)O2)c(=O)[nH]c1=O [ZIDOVUDINE] | > 200 | > 60600 |
